Counter-ions that a name gives are not always drawn.

Consider `COC(=O)C1=C(CCc2nccs2)NC(CC(=O)N2CCC(C3(CNC(C)=O)CCCCC3)CC2)=C(C(=O)OC)C1c1c(Cl)cccc1Cl` (stereo not drawn) [Example 44, Dimethyl 2-[2-[4-[1-[(acetylamino)methyl]cyclohexyl]-1-piperidinyl]-2-oxoethyl]-4-(2,6dichlorophenyl)-6-[2-(1,3-thiazol-2-yl)ethyl]-1,4dihydro-3,5-pyridinedicarboxylate], for which the melting point was 114 to 116 °C (dec.).

In the case of `COC(=O)C1=C(CCc2nccs2)NC(CC(=O)N2CCN(CC3(CN)CCCC3)CC2)=C(C(=O)OC)C1c1c(Cl)cccc1Cl` (stereo not drawn) [Example 17, Dimethyl 2-[2-[4-[[1-(aminomethyl)cyclopentyl]methyl]-1-piperazinyl]-2-oxoethyl]-4-(2,6-dichlorophenyl)-6-[2-(1,3-thiazol-2-yl)ethyl]-1,4-dihydro-3,5-pyridinedicarboxylate], the melting point was 161 to 164 °C.

For `COC(=O)C1=C(CCc2nccs2)NC(CC(=O)N2CCN(CC3(CNC4CCCC4)CCCC3)CC2)=C(C(=O)OC)C1c1c(Cl)cccc1Cl` (stereo not drawn) (as salt: HCl) [Example 11, Dimethyl 2-[2-[4-[[1-[(cyclopentylamino)methyl]cyclopentyl]methyl]-1-piperazinyl]-2-oxoethyl]-4-(2,6dichlorophenyl)-6-[2-(1,3-thiazol-2-yl)ethyl]-1,4-dihydro-3,5-pyridinedicarboxylate], the melting point is 174 to 177 °C (dec.).

Regarding `CCN(CC)C1(CCN2CCN(C(=O)CC3=C(C(=O)OC)C(c4c(Cl)cccc4Cl)C(C(=O)OC)=C(CCc4nccs4)N3)CC2)CCCC1` (stereo not drawn) (as salt: HCl) [Example 34, Dimethyl 4-(2,6-dichlorophenyl)2-[2-[4-[2-[1-(diethylamino)cyclopentyl]ethyl]-1-piperazinyl]-2-oxoethyl]-6-[2-(1,3-thiazol-2-yl)ethyl]-1,4-dihydro-3,5-pyridinedicarboxylate], the melting point is 195 to 200 °C (dec.).

Take `CCNCC1(C2CCN(C(=O)CC3=C(C(=O)OC)C(c4c(Cl)cccc4Cl)C(C(=O)OC)=C(CCc4nccs4)N3)CC2)CCCCC1` (stereo not drawn) (as salt: HCl) [Example 45, Dimethyl 4-(2,6-dichlorophenyl)-2-[2-[4-[1-[(ethylamino)methyl]cyclohexyl]-1-piperidinyl]-2-oxoethyl]-6-[2-(1,3-thiazol-2-yl)ethyl]-1,4-dihydro-3,5-pyridinedicarboxylate]: the melting point was 162 to 163 °C (dec.).

Take `COC(=O)C1=C(CCc2nccs2)NC(CC(=O)N2CCN(CC3(C#N)CCCCC3)CC2)=C(C(=O)OC)C1c1c(Cl)cccc1Cl` (stereo not drawn) (as salt: HCl) [Example 1, Dimethyl 2-[2-[4-[(1-cyanocyclohexyl)methyl]-1-piperazinyl]-2-oxoethyl]-4-(2,6-dichlorophenyl)-6-[2-(1,3-thiazol-2-yl)ethyl]-1,4-dihydro-3,5-pyridinedicarboxylate]: the melting point was 211 to 213 °C (dec.).

In turn, `COC(=O)C1=C(CCc2nccs2)NC(CC(=O)N2CCN(CC(C)(C)C#N)CC2)=C(C(=O)OC)C1c1c(Cl)cccc1Cl` (stereo not drawn) [Example 15, Dimethyl 2-[2-[4-(2-cyano-2-methylpropyl)-1-piperazinyl]-2-oxoethyl]-4-(2,6-dichlorophenyl)-6-[2-(1,3-thiazol-2-yl)ethyl]-1,4-dihydro-3,5-pyridinedicarboxylate] displayed a melting point of 120 to 122 °C.

Turning to `COC(=O)C1=C(CCc2nccs2)NC(CC(=O)N2CCN(CCCCN3CCOCC3)CC2)=C(C(=O)OC)C1c1c(Cl)cccc1Cl` (stereo not drawn) (as salt: HCl) [Example 38, Dimethyl 4-(2,6-dichlorophenyl)-2-[2-[4-[4-(4-morpholinyl)butyl]-1-piperazinyl]-2-oxoethyl]-6-[2-(1,3-thiazol-2-yl)ethyl]-1,4-dihydro-3,5-pyridinedicarboxylate], the melting point was 169 to 177 °C (dec.).

As to `COC(=O)C1=C(CCc2nccs2)NC(CC(=O)N2CCN(CCCN3C(=O)CCC3C)CC2)=C(C(=O)OC)C1c1c(Cl)cccc1Cl` (stereo not drawn) (as salt: HCl) [Example 29, Dimethyl 4-(2,6-dichlorophenyl)-2-[2-[4-[3-(2-methyl-5-oxo1-pyrrolidinyl)propyl]-1-piperazinyl]-2-oxoethyl]-6-[2-(1,3-thiazol-2-yl)ethyl]-1,4-dihydro-3,5-pyridinedicarboxylate], the melting point was 188 to 193 °C (dec.).

The compound `CCNCC(C)(C)CN1CCN(C(=O)CC2=C(C(=O)OC)C(c3c(Cl)cccc3Cl)C(C(=O)OC)=C(CCc3nccs3)N2)CC1` (stereo not drawn) [Example 19, Dimethyl 4-(2,6-dichlorophenyl)-2-[2-[4-[3-(ethylamino)-2,2-dimethylpropyl]-1-piperazinyl]-2-oxoethyl]-6-[2-(1,3-thiazol-2-yl)ethyl]-1,4-dihydro-3,5-pyridinedicarboxylate] showed a melting point of 154 to 157 °C.

For the compound `CCC(CC)(CCN1CCN(C(=O)CC2=C(C(=O)OC)C(c3c(Cl)cccc3Cl)C(C(=O)OC)=C(CCc3nccs3)N2)CC1)N1CCCC1=O` (stereo not drawn) (as salt: HCl) [Example 39, Dimethyl 4-(2,6-dichlorophenyl)-2-[2-[4-[3-ethyl-3-(2-oxo-1-pyrrolidinyl)pentyl]-1-piperazinyl]-2-oxoethyl]-6-[2-(1,3-thiazol-2-yl)ethyl]-1,4-dihydro-3,5-pyridinedicarboxylate], the melting point is 151 to 155 °C (dec.).

As for `COC(=O)C1=C(CCc2nccs2)NC(CC(=O)N2CCN(CC3(CN)CCCCC3)CC2)=C(C(=O)OC)C1c1c(Cl)cccc1Cl` (stereo not drawn) (as salt: HCl) [Example 2, Dimethyl 2-[2-[4-[[1-(aminomethyl)cyclohexyl]methyl]-1-piperazinyl]-2-oxoethyl]-4-(2,6-dichlorophenyl)-6-[2-(1,3-thiazol-2-yl)ethyl]-1,4-dihydro-3,5-pyridinedicarboxylate], the melting point was 206 to 210 °C (dec.).

In the case of `COC(=O)C1=C(CCc2nccs2)NC(CC(=O)N2CCN(CC(C)(C)CNC(C)=O)CC2)=C(C(=O)OC)C1c1c(Cl)cccc1Cl` (stereo not drawn) [Example 16, Dimethyl 2-[2-[4-[3-(acetylamino)-2,2-dimethylpropyl]-1-piperazinyl]-2-oxoethyl]-4-(2,6-dichlorophenyl)-6-[2-(1,3-thiazol-2-yl)ethyl]-1,4-dihydro-3,5 pyridinedicarboxylate], the melting point was 104 to 107 °C.

Turning to `COC(=O)C1=C(CCc2nccs2)NC(CC(=O)N2CCN(CC3(N)CCCCC3)CC2)=C(C(=O)OC)C1c1c(Cl)cccc1Cl` (stereo not drawn) (as salt: HCl) [Example 6, Dimethyl 2-[2-[4-[(1-aminocyclohexyl)methyl]-1-piperazinyl]-2-oxoethyl]4-(2,6-dichlorophenyl)-6-[2-(1,3-thiazol-2-yl)ethyl]-1,4-dihydro-3,5-pyridinedicarboxylate], the melting point is 210 to 220 °C (dec.).

For `COC(=O)C1=C(CCc2nccs2)NC(CC(=O)N2CCN(CCCN3CCCC3=O)CC2)=C(C(=O)OC)C1c1c(Cl)cccc1Cl` (stereo not drawn) (as salt: HCl) [Example 22, Dimethyl 4-(2,6-dichlorophenyl)-2-[2-oxo-2-[4-[3-(2-oxo-1-pyrrolidinyl)propyl]-1-piperazinyl]ethyl]-6-[2-(1,3-thiazol-2-yl)ethyl]-1,4-dihydro-3,5-pyridinedicarboxylate], the melting point was 185 to 190 °C (dec.).

The values are drawn from patent US6444677B2, “5-membered heteroaryl substituted 1,4-dihydropyridine compounds as bradykinin antagonists” (Pfizer Inc., priority 1999, dated 2002).
